Results: patent US12378224B2 (Dong-A Socio Holdings Co., Ltd., priority 2016, dated 2025)

molecular target: human c-MER catalytic domain (Homo sapiens (Human), UniProt Q12866); test: TR-FRET Kinase Activity Biochemical Assay (LanthaScreen); conditions: 10 uM ATP, 1 hour, kinase not given
How it was run: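 Activity was quantified as the ratio of 495 nm to 520 nm emission (excitation 340 nm) in a LanthaScreen TR-FRET format. The enzyme was the human c-MER catalytic domain, and the substrate was fluorescein-poly-GT. Detection used 2 nM Tb anti-phosphotyrosine antibody for 30 min after termination with 10 mM EDTA.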

Chain of human c-MER catalytic domain (Q12866 587-858): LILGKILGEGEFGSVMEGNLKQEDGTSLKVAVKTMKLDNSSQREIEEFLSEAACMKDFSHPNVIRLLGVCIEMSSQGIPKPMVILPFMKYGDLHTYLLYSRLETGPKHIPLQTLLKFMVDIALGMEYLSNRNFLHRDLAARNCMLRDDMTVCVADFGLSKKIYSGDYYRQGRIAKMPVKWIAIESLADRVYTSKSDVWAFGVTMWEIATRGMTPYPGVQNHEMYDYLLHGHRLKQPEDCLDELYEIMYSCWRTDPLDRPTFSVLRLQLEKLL

Structure (SMILES) | IC50
Cn1cc(-c2cnc(N)c(C(=O)N[C@@H]3CCN(C(=O)c4cccc(C5=CCCCC5)c4)C3)c2)cn1 [Example 475, (R)-2-amino-5-(1-methyl-1H-pyrazol-4-yl)-N-(1-(2′,3′,4′,5′-tetrahydro-[1,1′-biphenyl]-3-carbonyl)pyrrolidin-3-yl)nicotinamide] | > 1 µM
Cn1cc(-c2cnc(N)c(C(=O)N[C@@H]3CCN(C(=O)c4cccc(-c5cccc(N6CCCCC6)c5)c4)C3)c2)cn1 [Example 477, (R)-2-amino-5-(1-methyl-1H-pyrazol-4-yl)-N-(1-(3′-(piperidin-1-yl)-[1,1′-biphenyl]-3-carbonyl)pyrrolidin-3-yl)nicotinamide] | > 1 µM
Cn1cc(-c2cnc(N)c(C(=O)N[C@@H]3CCN(C(=O)c4cc(-c5ccccc5)ccc4N)C3)c2)cn1 [Example 486, (R)-2-amino-N-(1-(4-amino-[1,1′-biphenyl]-3-carbonyl)pyrrolidin-3-yl)-5-(1-methyl-1H-pyrazol-4-yl)nicotinamide] | 0.1 to 1 µM
Cn1cc(-c2cnc(N)c(C(=O)N[C@@H]3CCN(C(=O)c4ccc(-c5ccoc5)cc4)C3)c2)cn1 [Example 487, (R)-2-amino-N-(1-(4-(furan-3-yl)benzoyl)pyrrolidin-3-yl)-5-(1-methyl-1H-pyrazol-4-yl)nicotinamide] | 0.1 to 1 µM
Cn1cc(-c2cnc(N)c(C(=O)N[C@@H]3CCN(C(=O)c4ccc(-c5ccncc5)cc4)C3)c2)cn1 [Example 489, (R)-2-amino-5-(1-methyl-1H-pyrazol-4-yl)-N-(1-(4-(pyridin-4-yl)benzoyl)pyrrolidin-3-yl)nicotinamide] | 0.1 to 1 µM
Cn1cc(-c2cnc(N)c(C(=O)N[C@@H]3CCN(C(=O)c4ccc(C5=CCCCC5)cc4)C3)c2)cn1 [Example 494, (R)-2-amino-5-(1-methyl-1H-pyrazol-4-yl)-N-(1-(2′,3′,4′,5′-tetrahydro-[1,1′-biphenyl]-4-carbonyl)pyrrolidin-3-yl)nicotinamide] | 0.01 to 0.1 µM
Cn1cc(-c2cnc(N)c(C(=O)N[C@@H]3CCN(C(=O)c4cccc(-c5ccc6c(c5)NC(=O)C6=O)c4)C3)c2)cn1 [Example 495, (R)-2-amino-N-(1-(3-(2,3-dioxoindolin-6-yl)benzoyl)pyrrolidin-3-yl)-5-(1-methyl-1H-pyrazol-4-yl)nicotinamide] | > 1 µM
Cn1cc(-c2cnc(N)c(C(=O)N[C@@H]3CCN(C(=O)C4Cc5ccccc5C4)C3)c2)cn1 [Example 496, (R)-2-amino-N-(1-(2,3-dihydro-1H-indene-2-carbonyl)pyrrolidin-3-yl)-5-(1-methyl-1H-pyrazol-4-yl)nicotinamide] | > 1 µM
Cn1cc(-c2cnc(N)c(C(=O)N[C@@H]3CCN(C(=O)c4nc5cc(Cl)ccc5o4)C3)c2)cn1 [Example 498, (R)-2-amino-N-(1-(5-chlorobenzo[d]oxazole-2-carbonyl)pyrrolidin-3-yl)-5-(1-methyl-1H-pyrazol-4-yl)nicotinamide] | > 1 µM
Cn1cc(-c2cnc(N)c(C(=O)N[C@@H]3CCN(C(=O)c4nn(C)c5ccccc45)C3)c2)cn1 [Example 499, (R)-2-amino-N-(1-(1-methyl-1H-indazole-3-carbonyl)pyrrolidin-3-yl)-5-(1-methyl-1H-pyrazol-4-yl)nicotinamide] | 0.1 to 1 µM
Cc1onc(-c2ccccc2)c1C(=O)N1CC[C@@H](NC(=O)c2cc(-c3cnn(C)c3)cnc2N)C1 [Example 500, (R)-2-amino-5-(1-methyl-1H-pyrazol-4-yl)-N-(1-(5-methyl-3-phenylisoxazole-4-carbonyl)pyrrolidin-3-yl)nicotinamide] | > 1 µM
Cn1cc(-c2cnc(N)c(C(=O)N[C@@H]3CCN(C(=O)c4cccc5c4oc4ccccc45)C3)c2)cn1 [Example 501, (R)-2-amino-N-(1-(dibenzo[b,d]furan-4-carbonyl)pyrrolidin-3-yl)-5-(1-methyl-1H-pyrazol-4-yl)nicotinamide] | > 1 µM
Cn1cc(-c2cnc(N)c(C(=O)N[C@@H]3CCN(C(=O)c4ccc5[nH]ccc5c4)C3)c2)cn1 [Example 502, (R)—N-(1-(1H-indole-5-carbonyl)pyrrolidin-3-yl)-2-amino-5-(1-methyl-1H-pyrazol-4-yl)nicotinamide] | > 1 µM
Cn1cc(-c2cnc(N)c(C(=O)N[C@@H]3CCN(C(=O)c4ccc5[nH]c6c(c5c4)CCC6)C3)c2)cn1 [Example 503, (R)-2-amino-5-(1-methyl-1H-pyrazol-4-yl)-N-(1-(1,2,3,4-tetrahydrocyclopenta[b]indole-7-carbonyl)pyrrolidin-3-yl)nicotinamide] | > 1 µM
Cn1cc(-c2cnc(N)c(C(=O)N[C@@H]3CCN(C(=O)c4ccc(-c5cnn(C6CCN(C(=O)OC(C)(C)C)CC6)c5)cc4)C3)c2)cn1 [Example 511, tert-butyl (R)-4-(4-(4-(3-(2-amino-5-(1-methyl-1H-pyrazol-4-yl)nicotinamido)pyrrolidine-1-carbonyl)phenyl)-1H-pyrazol-1-yl)piperidine-1-carboxylate] | 0.1 to 1 µM
CC(=O)n1ccc2cc(C(=O)N3CC[C@@H](NC(=O)c4cc(-c5cnn(C)c5)cnc4N)C3)ccc21 [Example 513, (R)—N-(1-(1-acetyl-1H-indole-5-carbonyl)pyrrolidin-3-yl)-2-amino-5-(1-methyl-1H-pyrazol-4-yl)nicotinamide] | 0.1 to 1 µM
CC(=O)n1ccc2c(C(=O)N3CC[C@@H](NC(=O)c4cc(-c5cnn(C)c5)cnc4N)C3)cccc21 [Example 514, (R)—N-(1-(1-acetyl-1H-indole-4-carbonyl)pyrrolidin-3-yl)-2-amino-5-(1-methyl-1H-pyrazol-4-yl)nicotinamide] | > 1 µM
Cn1cc(-c2cnc(N)c(C(=O)N[C@@H]3CCN(C(=O)c4cn(-c5ccccc5)nc4C(F)(F)F)C3)c2)cn1 [Example 516, (R)-2-amino-5-(1-methyl-1H-pyrazol-4-yl)-N-(1-(1-phenyl-3-(trifluoromethyl)-1H-pyrazole-4-carbonyl)pyrrolidin-3-yl)nicotinamide] | > 1 µM
Cc1n[nH]c(C)c1-c1ccc(C(=O)N2CC[C@@H](NC(=O)c3cc(-c4cnn(C)c4)cnc3N)C2)cc1 [Example 518, (R)-2-amino-N-(1-(4-(3,5-dimethyl-1H-pyrazol-4-yl)benzoyl)pyrrolidin-3-yl)-5-(1-methyl-1H-pyrazol-4-yl)nicotinamide] | 0.1 to 1 µM
Cc1nn(-c2ccc(N)cc2)c(C)c1-c1ccc(C(=O)N2CC[C@@H](NC(=O)c3cc(-c4cnn(C)c4)cnc3N)C2)cc1 [Example 520, (R)-2-amino-N-(1-(4-(1-(4-aminophenyl)-3,5-dimethyl-1H-pyrazol-4-yl)benzoyl)pyrrolidin-3-yl)-5-(1-methyl-1H-pyrazol-4-yl)nicotinamide] | 0.1 to 1 µM
Cc1nn(C)c(C(F)(F)F)c1-c1ccc(C(=O)N2CC[C@@H](NC(=O)c3cc(-c4cnn(C)c4)cnc3N)C2)cc1 [Example 521, (R)-2-amino-N-(1-(4-(1,3-dimethyl-5-(trifluoromethyl)-1H-pyrazol-4-yl)benzoyl)pyrrolidin-3-yl)-5-(1-methyl-1H-pyrazol-4-yl)nicotinamide] | 0.1 to 1 µM
COc1ccsc1-c1ccc(C(=O)N2CC[C@@H](NC(=O)c3cc(-c4cnn(C)c4)cnc3N)C2)cc1 [Example 524, (R)-2-amino-N-(1-(4-(3-methoxythiophen-2-yl)benzoyl)pyrrolidin-3-yl)-5-(1-methyl-1H-pyrazol-4-yl)nicotinamide] | 0.01 to 0.1 µM
CN(C)c1ccc(Oc2ccc(-c3ccc(C(=O)N4CC[C@@H](NC(=O)c5cc(-c6cnn(C)c6)cnc5N)C4)cc3)cc2)cc1 [Example 529, (R)-2-amino-N-(1-(4′-(4-(dimethylamino)phenoxy)-[1,1′-biphenyl]-4-carbonyl)pyrrolidin-3-yl)-5-(1-methyl-1H-pyrazol-4-yl)nicotinamide] | 0.01 to 0.1 µM
Cn1cc(-c2cnc(N)c(C(=O)N[C@@H]3CCN(C(=O)c4ccc(-c5ccc(Oc6cccc(N)c6)cc5)cc4)C3)c2)cn1 [Example 530, (R)-2-amino-N-(1-(4′-(3-aminophenoxy)-[1,1′-biphenyl]-4-carbonyl)pyrrolidin-3-yl)-5-(1-methyl-1H-pyrazol-4-yl)nicotinamide] | 0.01 to 0.1 µM
Cn1cc(-c2cnc(N)c(C(=O)N[C@@H]3CCN(C(=O)c4ccc(-c5ccc(OC6CCNCC6)cc5)cc4)C3)c2)cn1 [Example 531, (R)-2-amino-5-(1-methyl-1H-pyrazol-4-yl)-N-(1-(4′-(piperidin-4-yloxy)-[1,1′-biphenyl]-4-carbonyl)pyrrolidin-3-yl)nicotinamide] | 0.01 to 0.1 µM
Cn1cc(-c2cnc(N)c(C(=O)N[C@@H]3CCN(C(=O)c4ccc(-c5ccc(OC6CCNC6)cc5)cc4)C3)c2)cn1 (stereo partly drawn) [Example 532, 2-amino-5-(1-methyl-1H-pyrazol-4-yl)-N-((3R)-1-(4′-(pyrrolidin-3-yloxy)-[1,1′-biphenyl]-4-carbonyl)pyrrolidin-3-yl)nicotinamide] | 0.1 to 1 µM
Cn1cc(-c2cnc(N)c(C(=O)N[C@@H]3CCN(C(=O)c4ccc(-c5ccc(Oc6ccc(N)cc6)cc5F)cc4)C3)c2)cn1 [Example 533, (R)-2-amino-N-(1-(4′-(4-aminophenoxy)-2′-fluoro-[1,1′-biphenyl]-4-carbonyl)pyrrolidin-3-yl)-5-(1-methyl-1H-pyrazol-4-yl)nicotinamide] | 0.01 to 0.1 µM
Cc1ccc(-c2ccc(C(=O)N3CC[C@@H](NC(=O)c4cc(-c5cnn(C)c5)cnc4N)C3)cc2C)s1 [Example 536, (R)-2-amino-5-(1-methyl-1H-pyrazol-4-yl)-N-(1-(3-methyl-4-(5-methylthiophen-2-yl)benzoyl)pyrrolidin-3-yl)nicotinamide] | 0.01 to 0.1 µM
Cn1cc(-c2cnc(N)c(C(=O)N[C@@H]3CCN(C(=O)c4ccc(-c5ccc(C#N)s5)cc4)C3)c2)cn1 [Example 537, (R)-2-amino-N-(1-(4-(5-cyanothiophen-2-yl)benzoyl)pyrrolidin-3-yl)-5-(1-methyl-1H-pyrazol-4-yl)nicotinamide] | 0.01 to 0.1 µM
Cc1noc(C)c1-c1ccc(C(=O)N2CC[C@@H](NC(=O)c3cc(-c4cnn(C)c4)cnc3N)C2)cc1 [Example 539, (R)-2-amino-N-(1-(4-(3,5-dimethylisoxazol-4-yl)benzoyl)pyrrolidin-3-yl)-5-(1-methyl-1H-pyrazol-4-yl)nicotinamide] | 0.1 to 1 µM
